We go through ten compounds from ChEMBL document CHEMBL1201862, “PubChem BioAssay data set” (2004).

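Briefly, cells in 96-well plates were exposed to five compound concentrations for 48 h, and endpoints were estimated by linear interpolation. At the GI50, growth is halved.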 The source made the active and inactive calls. Rule as the data show it: active = GI50 up to about 1.1 µM and inactive = higher.

Among the test systems are NCI-H522; UACC-62; LOX IMVI; M14; OVCAR-8; CCRF-CEM; OVCAR-4; SW-620; SNB-75; SF-539; HCT-15; ACHN; SN12C; U-251; SF-295; EKVX; NCI-H460; A549; MOLT-4; NCI-H23.
Common to all, as to experiment: NCI-60 cell line screen, 48 h

With `O=C(Nc1nc2ncn(CCNCc3ccccc3)c2c(=O)[nH]1)c1ccccc1`, the GI50 in the experiment with NCI-H522, with UACC-62, in the experiment with LOX IMVI, in the experiment with M14, in the experiment on OVCAR-8 and with CCRF-CEM was > 100 µM (inactive) each time. The GI50 was > 100 µM (inactive) in the experiment with OVCAR-4; > 100 µM (inactive) with SW-620; 90.2 µM (inactive) in the experiment on SNB-75; > 100 µM (inactive) with SF-539; greater than 100 µM with HCT-15; > 100 µM (inactive) with ACHN. In addition, the GI50 in the experiment on SN12C, in the experiment on U-251, in the experiment on SF-295, in the experiment with EKVX, in the experiment on NCI-H460 and with A549 was > 100 µM (inactive) each time.
For `OCc1nnn2c1CCC2`, the GI50 in the experiment on NCI-H522, with UACC-62, with LOX IMVI, with M14, with OVCAR-8 and in the experiment with CCRF-CEM was > 100 µM (inactive) in each case. The GI50 with OVCAR-4 is 76 µM (inactive); in the experiment on SW-620, > 100 µM (inactive); in the experiment with SNB-75, > 100 µM (inactive); with SF-539 it was > 100 µM (inactive); in the experiment with HCT-15 it was greater than 100 µM; in the experiment on ACHN, > 100 µM (inactive). Further, the GI50 in the experiment on SN12C, in the experiment on U-251, in the experiment with SF-295, with EKVX, in the experiment on NCI-H460 and with MOLT-4 was > 100 µM (inactive) in each case. Also, the GI50 in the experiment on NCI-H23 and with A549 was > 100 µM (inactive) each time.
For the compound `CC12CC3(C)CC(C)(C1)CC(N=[N+]=[N-])(C2)C3`, the GI50 with NCI-H522, in the experiment on UACC-62, in the experiment on LOX IMVI, in the experiment with M14, in the experiment on OVCAR-8 and in the experiment with CCRF-CEM was > 100 µM (inactive) throughout. For the same compound, the GI50 with OVCAR-4, in the experiment with SW-620, with SNB-75, in the experiment with SF-539, in the experiment on ACHN and in the experiment with SN12C was > 100 µM (inactive) in each case. The GI50 in the experiment on U-251, in the experiment with SF-295, in the experiment with EKVX, with NCI-H460, in the experiment with MOLT-4 and in the experiment with NCI-H23 was > 100 µM (inactive) in each case. In addition, in the experiment on A549, the GI50 was > 100 µM (inactive).
Turning to `CC(=O)OCC1OC(n2cc(F)c(=O)[nH]c2=O)C(N)C(OC(C)=O)C1OC(C)=O` (stereo not drawn), the GI50 with NCI-H522, in the experiment on UACC-62, in the experiment on LOX IMVI, in the experiment on OVCAR-8, in the experiment on CCRF-CEM and in the experiment with OVCAR-4 was > 100 µM (inactive) in each case. Besides, the GI50 was > 100 µM (inactive) with SW-620; > 100 µM (inactive) in the experiment with SNB-75; > 100 µM (inactive) in the experiment on SF-539; greater than 100 µM with HCT-15; > 100 µM (inactive) in the experiment with SN12C; > 100 µM (inactive) in the experiment with U-251. Moreover, the GI50 in the experiment on SF-295, in the experiment on EKVX, in the experiment on NCI-H460, with MOLT-4, with NCI-H23 and with A549 was > 100 µM (inactive) throughout.
`Cc1[nH]c(=O)[nH]c(=O)c1/C=C/C(=O)NC(CO)C[S+]([O-])C[S+](C)[O-]` (stereo not drawn): the GI50 was 9.51 µM (inactive) in the experiment on NCI-H522; 12.5 µM (inactive) in the experiment with UACC-62; 15.5 µM (inactive) in the experiment with LOX IMVI; 28.4 µM (inactive) in the experiment with OVCAR-8; 14.6 µM (inactive) with CCRF-CEM; 2.17 µM (inactive) in the experiment on OVCAR-4. The GI50 in the experiment on SW-620 is 38.6 µM (inactive); in the experiment with SNB-75 it was 7.18 µM (inactive); in the experiment with SF-539 it was 13.9 µM (inactive); in the experiment on HCT-15, 44.3 µM; in the experiment with SN12C, 14.2 µM (inactive); in the experiment with U-251, 3.8 µM (inactive). The GI50 in the experiment with SF-295 is 15.6 µM (inactive); with EKVX it was 16.4 µM (inactive); with NCI-H460 it was 16.6 µM (inactive); in the experiment on MOLT-4 it was 18.7 µM (inactive); in the experiment on NCI-H23 it was 10.8 µM (inactive); with A549, 24.4 µM (inactive).
On to `S=c1nc(Nc2ccc(Br)cc2)c2c3c(sc2[nH]1)CN(N1CCc2c(sc4[nH]c(=S)nc(Nc5ccc(Br)cc5)c24)C1)CC3`, for which the GI50 in the experiment with NCI-H522 is 12.8 µM (inactive); in the experiment on UACC-62, 15.1 µM (inactive); in the experiment on LOX IMVI, 8.67 µM (inactive); in the experiment with M14, 8.36 µM (inactive); with OVCAR-8, > 50 µM (inactive); in the experiment on CCRF-CEM, 23.9 µM (inactive). Also, the GI50 is 30.2 µM (inactive) in the experiment with OVCAR-4; 16.4 µM (inactive) in the experiment with SW-620; > 50 µM (inactive) in the experiment with SNB-75; 29.3 µM (inactive) in the experiment on SF-539; 22.5 µM in the experiment with HCT-15; 21.1 µM (inactive) in the experiment on ACHN. Also, the GI50 was 28.4 µM (inactive) with SN12C; 9.42 µM (inactive) in the experiment with U-251; 19.1 µM (inactive) with SF-295; 35.2 µM (inactive) with EKVX; 23.8 µM (inactive) in the experiment on NCI-H460; 12.8 µM (inactive) in the experiment with MOLT-4. For the same compound, the figures for the GI50 in the experiment on NCI-H23 and with A549 were 24 µM (inactive) and 23 µM (inactive), respectively.
Turning to `CCCO[C@@H]1[C@@H](OC(C)=O)[C@@H](OC(C)=O)C(C)(C)/C=C/[C@H](C)C(=O)[C@@]2(OC(C)=O)C[C@@](C)(OC(C)=O)[C@H](OC(C)=O)[C@@H]2[C@H]2OC(=O)CC[C@@]12OC(=O)c1ccccc1`, the GI50 in the experiment with NCI-H522 is 0.774 µM (active); with UACC-62, > 25 µM (inactive); with LOX IMVI it was > 25 µM (inactive); with M14, > 25 µM (inactive); with OVCAR-8, > 25 µM (inactive); in the experiment with CCRF-CEM, 4.85 µM (inactive). Besides, the GI50 in the experiment with OVCAR-4 is > 25 µM (inactive); in the experiment with SW-620, 23.6 µM (inactive); in the experiment on SNB-75, > 25 µM (inactive); in the experiment with SF-539, > 25 µM (inactive); in the experiment on HCT-15 it was greater than 25 µM; in the experiment on ACHN it was > 25 µM (inactive). The GI50 in the experiment on SN12C was > 25 µM (inactive); with U-251, > 25 µM (inactive); in the experiment with SF-295 it was 10.4 µM (inactive); in the experiment on EKVX, > 25 µM (inactive); with NCI-H460, 6.73 µM (inactive); in the experiment with MOLT-4, 5.13 µM (inactive). Also, the GI50 in the experiment on NCI-H23 was > 25 µM (inactive).
Take `O=C1CSc2sc(=S)sc2S1`: the GI50 in the experiment with NCI-H522 is > 61.7 µM (inactive); in the experiment with UACC-62, > 100 µM (inactive); in the experiment with LOX IMVI, 61.1 µM (inactive); in the experiment with OVCAR-8, > 100 µM (inactive); in the experiment with CCRF-CEM, > 76.4 µM (inactive); in the experiment with OVCAR-4, > 59.3 µM (inactive). For the same compound, the GI50 was > 100 µM (inactive) in the experiment on SW-620; > 100 µM (inactive) in the experiment with SNB-75; > 100 µM (inactive) with SF-539; greater than 79.3 µM in the experiment on HCT-15; > 70.1 µM (inactive) with SN12C; > 100 µM (inactive) with U-251. In addition, the GI50 was > 24.5 µM (inactive) in the experiment with SF-295; > 100 µM (inactive) in the experiment with EKVX; > 100 µM (inactive) in the experiment on NCI-H460; > 100 µM (inactive) with MOLT-4; > 100 µM (inactive) in the experiment on NCI-H23; 50.8 µM (inactive) in the experiment with A549.
`CN(C)C(=S)/N=c1\ss/c(=N\S(=O)(=O)c2ccccc2)n1-c1ccccc1`: the GI50 in the experiment with NCI-H522 was 0.0855 µM (active); with UACC-62, 0.297 µM (active); in the experiment on LOX IMVI, 4.06 µM (inactive); with M14, 20.6 µM (inactive); with OVCAR-8 it was 23.7 µM (inactive); in the experiment on CCRF-CEM, 0.333 µM (active). Moreover, the GI50 with OVCAR-4 was 0.185 µM (active); in the experiment on SW-620, 9.95 µM (inactive); with SNB-75, > 100 µM (inactive); with SF-539 it was 19.7 µM (inactive); in the experiment with HCT-15, 7.28 µM; in the experiment with ACHN it was 24.2 µM (inactive). Further, the GI50 with SN12C was 33 µM (inactive); in the experiment with U-251 it was 27 µM (inactive); with SF-295 it was 20.3 µM (inactive); in the experiment with EKVX, 59.6 µM (inactive); in the experiment with MOLT-4, 5.35 µM (inactive); with NCI-H23, 16.1 µM (inactive). In addition, in the experiment with A549, the GI50 is 14.1 µM (inactive).
On to `COc1ccc(C2C(N)=NCC2c2ccccn2)cc1` (stereo not drawn), for which the GI50 with NCI-H522, in the experiment with UACC-62, in the experiment on LOX IMVI, with M14, in the experiment on OVCAR-8 and in the experiment with CCRF-CEM was > 100 µM (inactive) in each case. In addition, the GI50 with OVCAR-4, with SW-620, in the experiment on SNB-75, in the experiment on SF-539, with ACHN and in the experiment with SN12C was > 100 µM (inactive) in each case. In addition, the GI50 in the experiment on U-251, with SF-295, in the experiment with EKVX, in the experiment on NCI-H460, in the experiment on MOLT-4 and with NCI-H23 was > 100 µM (inactive) each time. For the same compound, the GI50 in the experiment on A549 was > 100 µM (inactive).
